Test results from the CheMixHub ionic liquid set.

Assay: xn = mol fraction of the nth substance listed

CS(=O)(=O)[O-].C[N+](C)(CCO)CCO + CCO
viscosity [mPa·s], 101 kPa
Settings | x1 = 0.099 | x1 = 0.2 | x1 = 0.2984 | x1 = 0.4 | x1 = 0.5005 | x1 = 0.6011 | x1 = 0.7008 | x1 = 0.7993 | x1 = 0.8954 | x1 = 1
298.15 K | 3.21 | 8.15 | 18.5 | 39.7 | 80.7 | 176 | 319 | 556 | 950 | 1495
303.15 K | 2.89 | 7.02 | 15.54 | 32.2 | 63.3 | 133.2 | 236 | 399 | 664 | 1021
308.15 K | 2.61 | 6.13 | 13.16 | 26.5 | 50.5 | 92.7 | 178 | 293 | 476 | 716
313.15 K | 2.32 | 5.38 | 11.4 | 22.1 | 41 | 73.2 | 136.8 | 221 | 350 | 513
318.15 K | 2.13 | 4.76 | 9.92 | 18.6 | 33.7 | 58.6 | 106.9 | 169 | 262 | 378
323.15 K | 1.9 | 4.24 | 8.58 | 15.85 | 28 | 47.6 | 76.5 | 132.1 | 201 | 282

OCCO + CCOS(=O)(=O)[O-].CC[n+]1ccn(C)c1
100 kPa, x1 = 1
Settings | viscosity [mPa·s]
298.15 K | 16.8
303.15 K | 13.8

[N-]=C=S.[NH4+] + CCOS(=O)(=O)[O-].CC[n+]1ccn(C)c1
101 kPa
Settings | electrical conductivity [S/m] | viscosity [mPa·s]
298.15 K, x1 = 0.0235 | 0.373 | 103.1
298.15 K, x1 = 0.3025 | 0.285 | –
303.15 K, x1 = 0.565 | 0.375 | 172.5
308.15 K, x1 = 0.3025 | 0.439 | 129.6
308.15 K, x1 = 0.4042 | 0.436 | 140.9
313.15 K, x1 = 0.5997 | 0.59 | –
318.15 K, x1 = 0.5205 | 0.656 | 86.9
318.15 K, x1 = 0.565 | 0.728 | 85.3
323.15 K, x1 = 0.565 | 0.868 | 69.75
333.15 K, x1 = 0.0235 | – | 26.54
333.15 K, x1 = 0.3025 | – | 50.29
333.15 K, x1 = 0.4042 | – | 53.18
333.15 K, x1 = 0.5997 | – | 47.67

O=C([O-])CC(O)(CC(=O)[O-])C(=O)[O-].[K+].[K+].[K+] + CCOS(=O)(=O)[O-].CC[n+]1ccn(C)c1 + O
viscosity [mPa·s], 101.3 kPa
Settings | 293.15 K | 298.15 K | 303.15 K | 308.15 K | 313.15 K
x1 = 0.0001822, x2 = 0.001795 | 1.082 | 0.969 | 0.854 | 0.76 | 0.688
x1 = 0.0001842, x2 = 0.002697 | 1.117 | 0.997 | 0.886 | 0.798 | 0.719
x1 = 0.0001964, x2 = 0 | 1.012 | 0.9 | 0.806 | 0.73 | 0.654
x1 = 0.0002632, x2 = 0.003588 | 1.149 | 1.029 | 0.912 | 0.824 | 0.74
x1 = 0.0005421, x2 = 0 | 1.019 | 0.907 | 0.813 | 0.737 | 0.661
x1 = 0.0005539, x2 = 0.001794 | 1.091 | 0.978 | 0.863 | 0.769 | 0.697
x1 = 0.0005561, x2 = 0.002696 | 1.127 | 1.007 | 0.896 | 0.808 | 0.729
x1 = 0.0005675, x2 = 0.003587 | 1.157 | 1.037 | 0.921 | 0.832 | 0.749
x1 = 0.0008894, x2 = 0 | 1.026 | 0.914 | 0.82 | 0.744 | 0.668
x1 = 0.0009179, x2 = 0.001794 | 1.099 | 0.986 | 0.871 | 0.776 | 0.704
x1 = 0.0009314, x2 = 0.002695 | 1.135 | 1.015 | 0.904 | 0.816 | 0.737
x1 = 0.0009355, x2 = 0.003586 | 1.166 | 1.046 | 0.929 | 0.841 | 0.757
x1 = 0.00126, x2 = 0 | 1.032 | 0.92 | 0.826 | 0.75 | 0.674
x1 = 0.001287, x2 = 0.001793 | 1.106 | 0.993 | 0.878 | 0.783 | 0.712
x1 = 0.001299, x2 = 0.002694 | 1.143 | 1.023 | 0.912 | 0.824 | 0.745
x1 = 0.001316, x2 = 0.003585 | 1.174 | 1.054 | 0.937 | 0.849 | 0.765
x1 = 0.001616, x2 = 0 | 1.038 | 0.926 | 0.832 | 0.756 | 0.68
x1 = 0.001647, x2 = 0.001792 | 1.113 | 1 | 0.884 | 0.79 | 0.719
x1 = 0.001665, x2 = 0.002693 | 1.15 | 1.03 | 0.92 | 0.831 | 0.753
x1 = 0.001686, x2 = 0.003583 | 1.181 | 1.061 | 0.944 | 0.856 | 0.773
x1 = 0.001985, x2 = 0 | 1.044 | 0.932 | 0.838 | 0.762 | 0.686
x1 = 0.002026, x2 = 0.002692 | 1.158 | 1.038 | 0.926 | 0.839 | 0.759
x1 = 0.002032, x2 = 0.001792 | 1.12 | 1.007 | 0.892 | 0.798 | 0.725
x1 = 0.002072, x2 = 0.003582 | 1.19 | 1.07 | 0.954 | 0.865 | 0.78

CCCCn1cc[n+](C)c1C.O=S(=O)([N-]S(=O)(=O)C(F)(F)F)C(F)(F)F + CC[N+](C)(CC)CCOC.O=S(=O)([N-]S(=O)(=O)C(F)(F)F)C(F)(F)F
100 kPa, x2 = 0
Settings | electrical conductivity [S/m]
298.15 K | 0.237
308.15 K | 0.379
323.15 K | 0.665
328.15 K | 0.777

OCCO + CC[n+]1ccn(C)c1.F[B-](F)(F)F
viscosity [mPa·s]
Settings | 293.15 K | 298.15 K | 323.15 K | 333.15 K | 343.15 K
100 kPa, x1 = 1 | 21.4 | 17.4 | 7.12 | – | 4.1
101 kPa, x2 = 0 | – | – | – | 5.19 | –
